Patent US9650395B2, “Antibacterial compounds and methods for use” (PTC Therapeutics, Inc., priority 2011, dated 2017)
Values after ≈ are worked out from the molar mass of the structure shown.

What was measured:
[1] = system: E. coli ELZ4251 (MDR clinical isolate); experiment: Antibacterial activity, MIC, MDR E. coli ELZ4251; format: cell-based, Escherichia coli; conditions: Escherichia coli, E. coli ELZ4251, MDR clinical isolate; read-out: MIC ELZ4251
[2] = system: Neisseria meningitidis (N. meningitidis) 13090; experiment: Antibacterial activity, MIC, N. meningitidis 13090; format: cell-based; conditions: Neisseria meningitidis; N. meningitidis 13090; read-out: MIC 13090
[3] = system: control Gram-negative E. coli 25922 strain; experiment: Antibacterial activity, microbroth dilution MIC, E. coli 25922; format: cell-based, Escherichia coli; conditions: Escherichia coli; E. coli 25922, microbroth dilution; read-out: MIC, 25922
[4] = system: super sensitive Gram-negative Escherichia coli (E. coli) BAS849; experiment: Antibacterial activity, microbroth dilution MIC, E. coli BAS849; format: cell-based; conditions: Escherichia coli; E. coli BAS849, microbroth dilution; read-out: MIC, BAS849
[5] = system: Gram-positive Staphylococcus aureus (S. aureus) 29213; experiment: Antibacterial activity, microbroth dilution MIC, S. aureus 29213; format: cell-based; conditions: Staphylococcus aureus; S. aureus 29213, microbroth dilution; read-out: MIC, 29213
[6] = system: Moraxella catarrhalis (M. catarrhalis) 25238; experiment: Antibacterial activity, MIC, M. catarrhalis 25238; format: cell-based; conditions: Moraxella catarrhalis, M. catarrhalis 25238; read-out: MIC 25238
[7] = system: quinolone resistant E. coli LZ3111; experiment: Antibacterial activity, MIC, quinolone resistant E. coli LZ3111; format: cell-based, Escherichia coli; conditions: Escherichia coli, read-out: MIC, LZ3111
From the text: (§1) The antibacterial activity from a microbroth dilution method may be presented as the minimum inhibitory concentration (MIC in […]). The MIC value is the lowest concentration of a drug which prevents macroscopically visible bacterial growth under test conditions.
Mutations in these regions are known to confer a high level resistance to the quinolone class of antibiotics.

[8] = system: E. coli ELZ4000 (MDR clinical isolate); experiment: Antibacterial activity, MIC, MDR E. coli ELZ4000; format: cell-based, Escherichia coli; conditions: Escherichia coli; E. coli ELZ4000, MDR clinical isolate; read-out: MIC ELZ4000
[9] = system: Pseudomonas aeruginosa (P. aeruginosa) 27853; experiment: Antibacterial activity, MIC, P. aeruginosa 27853; format: cell-based; conditions: Pseudomonas aeruginosa, P. aeruginosa 27853; read-out: MIC 27853
From the text: as §1
Antibacterial activity of test compounds against the Gram-negative bacterium Pseudomonas aeruginosa (P. aeruginosa) 27853 is shown in Table 5.

[10] = system: Haemophilus influenzae (H. influenzae) 49247; experiment: Antibacterial activity, MIC, H. influenzae 49247; format: cell-based; conditions: Haemophilus influenzae; H. influenzae 49247; read-out: MIC 49247
From the text: as §1
Antibacterial activity of test compounds against the Gram-negative bacteria Haemophilus influenzae (H. influenzae) 49247, Moraxella catarrhalis (M. catarrhalis) 25238 and Neisseria meningitidis (N. meningitidis) 13090 is shown in Table 6.

Compound	MIC [1]	MIC [2]	MIC [3]	MIC [4]	MIC [5]	MIC [6]	MIC [7]	MIC [8]	MIC [9]	MIC [10]
CCc1cc(C(=O)O)c(=O)[nH]c1-c1ccc(N2CCC2)cc1 [Cpd 111, 6-[4-(azetidin-1-yl)phenyl]-5-ethyl-2-oxo-1,2-dihydropyridine-3-carboxylic acid]	12.5 to 150 µg/mL (≈ 41.9 to 503 µM)	< 1 µg/mL	1 to 3.5 µg/mL (≈ 3.35 to 11.7 µM)	< 1 µg/mL	12.5 to 150 µg/mL (≈ 41.9 to 503 µM)	< 1 µg/mL	12.5 to 150 µg/mL (≈ 41.9 to 503 µM)	12.5 to 150 µg/mL (≈ 41.9 to 503 µM)	12.5 to 150 µg/mL (≈ 41.9 to 503 µM)	< 1 µg/mL
CCc1c(-c2ccc(N3CCCC3=O)cc2)[nH]c(=O)c(C(=O)O)c1O [Cpd 115, 5-ethyl-4-hydroxy-2-oxo-6-[4-(2-oxopyrrolidin-1-yl)phenyl]-1,2-dihydropyridine-3-carboxylic acid]	12.5 to 150 µg/mL (≈ 36.5 to 438 µM)	< 1 µg/mL	3.5 to 12.5 µg/mL (≈ 10.2 to 36.5 µM)	< 1 µg/mL	12.5 to 150 µg/mL (≈ 36.5 to 438 µM)	< 1 µg/mL	12.5 to 150 µg/mL (≈ 36.5 to 438 µM)	12.5 to 150 µg/mL (≈ 36.5 to 438 µM)	12.5 to 150 µg/mL (≈ 36.5 to 438 µM)	< 1 µg/mL
CCc1cc(C(=O)O)c(=O)[nH]c1-c1ccc(N2CC(O)C2)cc1 [Cpd 121, 5-ethyl-6-[4-(3-hydroxyazetidin-1-yl)phenyl]-2-oxo-1,2-dihydropyridine-3-carboxylic acid]	12.5 to 150 µg/mL (≈ 39.8 to 477 µM)	< 1 µg/mL	3.5 to 12.5 µg/mL (≈ 11.1 to 39.8 µM)	< 1 µg/mL	12.5 to 150 µg/mL (≈ 39.8 to 477 µM)	< 1 µg/mL	12.5 to 150 µg/mL (≈ 39.8 to 477 µM)	12.5 to 150 µg/mL (≈ 39.8 to 477 µM)		< 1 µg/mL
CCc1cc(C(=O)O)c(=O)[nH]c1-c1ccc(N2CCC(O)C2)cc1 (stereo not drawn) [Cpd 123, 5-ethyl-6-[4-(3-hydroxypyrrolidin-1-yl)phenyl]-2-oxo-1,2-dihydropyridine-3-carboxylic acid]	12.5 to 150 µg/mL (≈ 38.1 to 457 µM)	< 1 µg/mL	< 1 µg/mL	< 1 µg/mL	3.5 to 12.5 µg/mL (≈ 10.7 to 38.1 µM)	< 1 µg/mL	12.5 to 150 µg/mL (≈ 38.1 to 457 µM)	12.5 to 150 µg/mL (≈ 38.1 to 457 µM)	3.5 to 12.5 µg/mL (≈ 10.7 to 38.1 µM)	< 1 µg/mL
CCc1cc(C(=O)O)c(=O)[nH]c1-c1ccc(N2CC[C@H](N)C2)cc1.Cl [Cpd 132, 6-{4-[(3S)-3-aminopyrrolidin-1-yl]phenyl}-5-ethyl-2-oxo-1,2-dihydropyridine-3-carboxylic acid hydrochloride]	12.5 to 150 µg/mL	< 1 µg/mL	1 to 3.5 µg/mL	< 1 µg/mL	3.5 to 12.5 µg/mL	< 1 µg/mL	12.5 to 150 µg/mL	12.5 to 150 µg/mL		< 1 µg/mL
CCc1cc(C(=O)O)c(=O)[nH]c1-c1ccc(N2C[C@@H](N)[C@H](OC)C2)cc1.Cl [Cpd 134, 6-{4-[(3R,4R)-3-amino-4-methoxypyrrolidin-1-yl]phenyl}-5-ethyl-2-oxo-1,2-dihydropyridine-3-carboxylic acid hydrochloride]	12.5 to 150 µg/mL	< 1 µg/mL	3.5 to 12.5 µg/mL	< 1 µg/mL	12.5 to 150 µg/mL	3.5 to 12.5 µg/mL	12.5 to 150 µg/mL	12.5 to 150 µg/mL		< 1 µg/mL
CCc1c(-c2ccc(N(C)C)cc2)[nH]c(=O)c(C(=O)O)c1OC [Cpd 298, 6-[4-(dimethylamino)phenyl]-5-ethyl-4-methoxy-2-oxo-1,2-dihydropyridine-3-carboxylic acid]		3.5 to 12.5 µg/mL (≈ 11.1 to 39.5 µM)	12.5 to 150 µg/mL (≈ 39.5 to 474 µM)	3.5 to 12.5 µg/mL (≈ 11.1 to 39.5 µM)	12.5 to 150 µg/mL (≈ 39.5 to 474 µM)	12.5 to 150 µg/mL (≈ 39.5 to 474 µM)				3.5 to 12.5 µg/mL (≈ 11.1 to 39.5 µM)
C=CCN(CC=C)c1ccc(-c2[nH]c(=O)c(C(=O)O)c(O)c2CC)cc1 [Cpd 300, 6-{4-[di(prop-2-en-1-yl)amino]phenyl}-5-ethyl-4-hydroxy-2-oxo-1,2-dihydropyridine-3-carboxylic acid]	12.5 to 150 µg/mL (≈ 35.3 to 423 µM)	< 1 µg/mL	12.5 to 150 µg/mL (≈ 35.3 to 423 µM)	1 to 3.5 µg/mL (≈ 2.82 to 9.88 µM)	1 to 3.5 µg/mL (≈ 2.82 to 9.88 µM)	< 1 µg/mL	12.5 to 150 µg/mL (≈ 35.3 to 423 µM)	12.5 to 150 µg/mL (≈ 35.3 to 423 µM)		12.5 to 150 µg/mL (≈ 35.3 to 423 µM)
CCc1c(-c2ccc(N(C)C)s2)[nH]c(=O)c(C(=O)O)c1O [Cpd 306, 6-[5-(dimethylamino)thiophen-2-yl]-5-ethyl-4-hydroxy-2-oxo-1,2-dihydropyridine-3-carboxylic acid]	12.5 to 150 µg/mL (≈ 40.5 to 486 µM)	< 1 µg/mL	3.5 to 12.5 µg/mL (≈ 11.4 to 40.5 µM)	< 1 µg/mL	3.5 to 12.5 µg/mL (≈ 11.4 to 40.5 µM)	< 1 µg/mL	12.5 to 150 µg/mL (≈ 40.5 to 486 µM)	12.5 to 150 µg/mL (≈ 40.5 to 486 µM)		< 1 µg/mL
